Results: ChEMBL document CHEMBL1155763, “The alkaloids of Artabotrys uncinatus” (J Nat Prod, 2001)
Converted amounts (≈) assume the structure as drawn. The source made the active and inactive calls. The rule behind the calls is not given here.

Columns and labels:
[1] = test system: HepG2; assay: Cytotoxicity against human HepG2 cells; type: functional, cell-based
[2] = Cytotoxicity against human HepG2(2.2.15) cells; type: functional, cell-based
[3] = biological target: Prothrombin (Homo sapiens) (UniProt P00734); assay: Inhibition of thrombin-mediated conversion of fibrinogen to fibrin

Row | Compound | IC50 [1] [µg/mL] | IC50 [2] [µg/mL] | Activity [3]
1 | COc1c2c3c(c4c1OCO4)-c1ccccc1C[C@H]3N(C(C)=O)CC2 | 9.8 (≈ 29 µM) | 9.3 (≈ 27.6 µM) | inactive
2 | COC1=C[C@@]23CCN(C)[C@@H](Cc4ccc(OC)c(O)c42)C3=CC1=O | 10.2 (≈ 31.2 µM) | 10.4 (≈ 31.8 µM) | inactive
3 | CC(C)=C1C=C(CN2CCCC2=O)C(=O)O1 [UNCININE] | 6.1 (≈ 27.6 µM) | 7.4 (≈ 33.4 µM) | inactive
4 | COc1ccc2c(c1)C(=O)c1nccc3cc4c(c-2c13)OCO4 [ATHEROSPERMIDINE] | 0.8 (≈ 2.62 µM) | 2.2 (≈ 7.21 µM) | inactive
5 | COC1=C[C@]23CCN(C)[C@H](Cc4cc(OC)c(O)cc42)C3=CC1=O [FLAVINANTINE] | 9.3 (≈ 28.4 µM) | 9.7 (≈ 29.6 µM) | inactive
6 | NC(=O)N1CCCC1=O [SQUAMOLONE] | 2.8 (≈ 21.9 µM) | 1.6 (≈ 12.5 µM) | inactive
7 | COc1c2c3c(c4c1OCO4)-c1ccccc1[C@@H](O)[C@H]3NCC2 [ARTABONATINE B] | 9.1 (≈ 29.2 µM) | 11 (≈ 35.3 µM) | inactive
